Experimental data from PubChem BioAssay (NCI).
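Results reflect a 48-hour exposure of cells in 96-well plates to compound at five concentrations. Here, GI50 denotes the concentration required for 50% inhibition of growth. TGI: total growth inhibition.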

What was measured:
Test in all cases: growth of human tumour cells (NCI), 48 h
A549 NSCLC = tested on: A549 NSCLC
CAKI-1 renal = tested on: CAKI-1 renal
HCT-15 colon = tested on: HCT-15 colon
HL-60(TB) leukemia = tested on: HL-60(TB) leukemia
NCI-H460 lung = tested on: NCI-H460 lung
SN12C renal = tested on: SN12C renal
SW-620 colon = tested on: SW-620 colon
UACC-257 melanoma = tested on: UACC-257 melanoma
UO-31 renal = tested on: UO-31 renal
T-47D breast = tested on: T-47D breast

With `O=C(O)CNS(=O)(=O)c1ccc(NC(=O)c2ccc(F)cc2)cc1` the TGI (A549 NSCLC) was > 100 µM, the TGI (CAKI-1 renal) was > 100 µM and the TGI (HCT-15 colon) was > 100 µM. For the same compound, the TGI (HL-60(TB) leukemia) was > 100 µM, the TGI (NCI-H460 lung) was > 100 µM and the TGI (SN12C renal) was > 100 µM. For the same compound, the TGI (SW-620 colon) was > 100 µM, the TGI (UACC-257 melanoma) was > 100 µM and the TGI (UO-31 renal) was > 100 µM.

For `CCON=C1C(C)(C)C(C)(C)C(C)(C)C1(C)C`, the TGI (A549 NSCLC) was > 100 µM, the TGI (CAKI-1 renal) was > 100 µM and the TGI (HCT-15 colon) was > 100 µM. The TGI (HL-60(TB) leukemia) was > 100 µM, the TGI (NCI-H460 lung) was > 100 µM and the TGI (SN12C renal) was > 100 µM. For the same compound, the TGI (SW-620 colon) was > 100 µM, the TGI (T-47D breast) was > 100 µM and the TGI (UACC-257 melanoma) was > 100 µM.

In the case of `O=S(=O)([O-])[O-].[Cl-].[NH2-].[NH2-].[NH2-].[NH2-].[Ru+3].c1ccc(-c2cccnc2)cc1`, the GI50 (A549 NSCLC) is reported as > 100 µM, the TGI (A549 NSCLC) is reported as > 100 µM and the GI50 (CAKI-1 renal) is reported as > 100 µM. For the same compound, the TGI (CAKI-1 renal) was > 100 µM, the GI50 (HCT-15 colon) was > 100 µM and the TGI (HCT-15 colon) was > 100 µM. For the same compound, the GI50 (HL-60(TB) leukemia) was > 100 µM, the TGI (HL-60(TB) leukemia) was > 100 µM and the GI50 (NCI-H460 lung) was > 100 µM. For the same compound, the TGI (NCI-H460 lung) was > 100 µM, the GI50 (SN12C renal) was > 100 µM and the TGI (SN12C renal) was > 100 µM. The GI50 (SW-620 colon) was > 100 µM, the TGI (SW-620 colon) was > 100 µM and the GI50 (UACC-257 melanoma) was > 100 µM. For the same compound, the TGI (UACC-257 melanoma) was > 100 µM, the GI50 (UO-31 renal) was > 100 µM and the TGI (UO-31 renal) was > 100 µM.

Compound `CCN(CC)CC(=O)/C=C/c1ccc(C)cc1` has a TGI (A549 NSCLC) of 60.8 µM, a TGI (CAKI-1 renal) of 31.7 µM and a TGI (HCT-15 colon) of 46 µM. For the same compound, the TGI (HL-60(TB) leukemia) was 52 µM, the TGI (NCI-H460 lung) was 46 µM and the TGI (SN12C renal) was 33.4 µM. It also gave a TGI (SW-620 colon) of 30.3 µM, a TGI (UACC-257 melanoma) of 46 µM and a TGI (UO-31 renal) of 39.8 µM.

`O=C1c2ccccc2-c2nccc3cc(Cl)nc1c23` was tested, and the GI50 (A549 NSCLC) was 5.15 µM, the TGI (A549 NSCLC) was > 94.1 µM and the GI50 (CAKI-1 renal) was > 100 µM. For the same compound, the TGI (CAKI-1 renal) was > 100 µM, the GI50 (HL-60(TB) leukemia) was 1.97 µM and the TGI (HL-60(TB) leukemia) was > 100 µM. It also gave a GI50 (NCI-H460 lung) of 3 µM, a TGI (NCI-H460 lung) of 12.2 µM and a GI50 (SN12C renal) of 2.25 µM. The TGI (SN12C renal) was > 100 µM, the GI50 (SW-620 colon) was 1.15 µM and the TGI (SW-620 colon) was 2.37 µM. It also gave a GI50 (T-47D breast) of 0.385 µM and a TGI (T-47D breast) of 1.72 µM.

Compound `Cc1[nH]c(C(=O)Nc2ccc(C(=O)N3CCNCC3)cc2OC(C)C)c(Cl)c1Cl` has a GI50 (CAKI-1 renal) of 3.61 µM, a TGI (CAKI-1 renal) of 15.1 µM and a GI50 (HCT-15 colon) of 1.82 µM. It also gave a TGI (HCT-15 colon) of 3.43 µM, a GI50 (HL-60(TB) leukemia) of 2.21 µM and a TGI (HL-60(TB) leukemia) of 4.44 µM. The GI50 (NCI-H460 lung) was 1.88 µM, the TGI (NCI-H460 lung) was 3.44 µM and the GI50 (SN12C renal) was 1.94 µM. For the same compound, the TGI (SN12C renal) was 4.28 µM, the GI50 (SW-620 colon) was 1.9 µM and the TGI (SW-620 colon) was 3.59 µM. The GI50 (T-47D breast) was 1.91 µM, the TGI (T-47D breast) was 4.62 µM and the GI50 (UACC-257 melanoma) was 1.79 µM. For the same compound, the TGI (UACC-257 melanoma) was 3.52 µM, the GI50 (UO-31 renal) was 1.44 µM and the TGI (UO-31 renal) was 2.85 µM.

For `Cc1ccc2c[c]1[Hg][CH2]COS2(=O)=O`, the GI50 (A549 NSCLC) was > 100 µM, the TGI (A549 NSCLC) was > 100 µM and the GI50 (HCT-15 colon) was 16.4 µM. For the same compound, the TGI (HCT-15 colon) was 30 µM, the GI50 (HL-60(TB) leukemia) was 21.8 µM and the TGI (HL-60(TB) leukemia) was 42.1 µM. For the same compound, the GI50 (NCI-H460 lung) was > 100 µM, the TGI (NCI-H460 lung) was > 100 µM and the GI50 (SN12C renal) was 17.2 µM. For the same compound, the TGI (SN12C renal) was 30.9 µM, the GI50 (SW-620 colon) was 17.8 µM and the TGI (SW-620 colon) was 31.6 µM. It also gave a GI50 (T-47D breast) of 15 µM, a TGI (T-47D breast) of 29.7 µM and a GI50 (UACC-257 melanoma) of 16.4 µM. It also gave a TGI (UACC-257 melanoma) of 29.9 µM, a GI50 (UO-31 renal) of 17.3 µM and a TGI (UO-31 renal) of 31 µM.

In the case of `C=CCC12CCC(=O)C=C1CCC1(C2)OCCO1` (centres undefined), the TGI (A549 NSCLC) is reported as > 100 µM, the TGI (CAKI-1 renal) is reported as > 100 µM and the TGI (HCT-15 colon) is reported as > 100 µM. The TGI (HL-60(TB) leukemia) was > 100 µM, the TGI (NCI-H460 lung) was > 100 µM and the TGI (SN12C renal) was > 100 µM. The TGI (SW-620 colon) was > 100 µM, the TGI (UACC-257 melanoma) was > 100 µM and the TGI (UO-31 renal) was > 100 µM.
